Laboratory results as given in ChEMBL document CHEMBL4651402, “Screening of ~5500 FDA-approved drugs and clinical candidates for anti-SARS-CoV-2 activity” (2021).

test system: SARS-CoV-2; assay: microbe, parasite or virus in culture; conditions: Severe acute respiratory syndrome coronavirus 2, Vero C1008, 48 h

| Structure (SMILES) | IC50 |
| --- | --- |
| CC(C)Nc1ccc(Nc2ccccc2)cc1 | > 20 µM |
| CCC(=O)C(CCN1CCCCC1)(c1ccccc1)c1ccccc1 [NORPIPANONE] | > 20 µM |
| c1ccc(C(CCN2CCCCC2)c2ccccc2)cc1 | > 20 µM |
| CCN(Cc1ccccc1)C(=O)Cn1c(=O)n(C)c2cnc(-c3ccccc3)nc21 | > 20 µM |
| Cc1ccc(S(=O)(=O)NC(=O)NC2C3CCC(C)(C2O)C3(C)C)cc1 (centres undefined) | > 20 µM |
| Nc1ccc(F)cc1NC(=O)c1ccc(CNC(=O)/C=C/c2cccnc2)cc1 | > 20 µM |
| CC[C@@H](C(N)=O)N1CCCC1=O | > 20 µM |
| O=C(O)C1CC(O)CN1 (centres undefined) | > 20 µM |
| COP(=O)(OC)OC(c1ccc(Cl)cc1)P(=O)(OC)OC (centres undefined) [MIFOBATE] | > 20 µM |
| NC(=O)CCC/N=C(/c1ccc(Cl)cc1)c1cc(F)ccc1O | > 20 µM |
| C[C@H]1C[C@@H]2[C@H]([C@@H](O)C[C@@]3(C)[C@H]2CC[C@]3(O)C(=O)CO)[C@@]2(C)C=CC(=O)C=C12 [METHYLPREDNISOLONE] | > 20 µM |
| O=C(O)c1ccccc1OP(=O)(O)O [FOSFOSAL] | > 20 µM |
| CCOc1ccccc1OCCN[C@H](C)Cc1ccc(OC)c(S(N)(=O)=O)c1 [TAMSULOSIN] | > 20 µM |
| Cc1cc(CC(C)CC(C)(C)C)n(O)c(=O)c1 (centres undefined) [PIROCTONE] | > 20 µM |
| C[C@]12CC[C@@H]3c4ccc(O)cc4CC[C@H]3[C@@H]1CC[C@@H]2OC(=O)CCC1CCCC1 [ESTRADIOL CYPIONATE] | > 20 µM |
| NC(=O)c1csc(C2OC(CO)C(O)C2O)n1 (centres undefined) | > 20 µM |
| CCOC(=O)C(CCc1ccccc1)NC(C)C(=O)N(CC(=O)O)C1Cc2ccccc2C1 (centres undefined) | > 20 µM |
| CCOP(=O)(Cc1ccc(C(=O)Nc2ccc(Br)cc2C#N)cc1)OCC [IBROLIPIM] | > 20 µM |
| O=C(O)C1CCc2cc(C3CCCCC3)c(Cl)cc21 (centres undefined) | > 20 µM |
| O=C(O)c1ccccc1S [THIOSALICYLIC ACID] | > 20 µM |
| CN1CCC(=C2c3ccccc3CCc3sccc32)CC1 [PIZOTYLINE] | > 20 µM |
| CN1CCN(c2nc(C3=C(c4c[nH]c5ccccc45)C(=O)NC3=O)c3ccccc3n2)CC1 [SOTRASTAURIN] | > 20 µM |
| CC(=O)OC1CC(OC2C(O)CC(OC3C(O)CC(OC4CCC5(C)C(CCC6C5CC(O)C5(C)C(C7=CC(=O)OC7)CCC65O)C4)OC3C)OC2C)OC(C)C1OC1OC(CO)C(O)C(O)C1O (centres undefined) | > 20 µM |
| CN1C(=O)N(C)C2C1N(C)C(=O)N2C (centres undefined) [MEBICAR] | > 20 µM |

| Structure (SMILES) | IC50 |
| --- | --- |
| CCN(CC)CCOc1ccccc1C(=O)CCc1ccccc1 [ETAFENONE] | > 20 µM |
| O=C(O)c1cc(NC(=O)[C@H](Cc2ccccc2F)NC(=O)c2cc3[nH]cnc3cc2C(=O)NCC2CCCCCC2)cc(C(=O)O)c1 | > 20 µM |
| C[C@@H]1NC(=O)CO[C@@H]1c1ccccc1 | > 20 µM |
| C[C@]12CC[C@@H]3c4ccc(O)cc4CC[C@H]3[C@@H]1C[C@@H](O)[C@@H]2O [ESTRIOL] | > 20 µM |
| Cc1cn2nc([C@H]3CCCCN3C(=O)c3cc(Cl)ccc3NS(C)(=O)=O)cc2nc1N1CC[C@H](N)C1 | > 20 µM |
| Oc1ccccc1 [PHENOL] | > 20 µM |
| CCOC(=O)COc1ccc2c(C)c(CCN(CC)CC)c(=O)oc2c1 [CHROMONAR] | > 20 µM |
| NCCCC[C@H](NC(=O)[C@@H](Cc1cc(Br)c(O)c(Br)c1)NC(=O)N1CCC(N2Cc3ccccc3NC2=O)CC1)C(=O)N1CCN(c2ccncc2)CC1 [OLCEGEPANT] | > 20 µM |
| NNC(=O)c1ccncc1 [ISONIAZID] | > 20 µM |
| CCO[C@@H]1OC(=O)C[C@@H]1NC(=O)[C@@H]1CCCN1C(=O)[C@@H](NC(=O)c1ccc(N)c(Cl)c1)C(C)(C)C [BELNACASAN] | > 20 µM |
| O=C1CCCN1CC#CCN1CCCC1 [OXOTREMORINE] | > 20 µM |
| O=c1cc(CO)occ1O [KOJIC ACID] | > 20 µM |
| CC12CCC3C(CC[C@H]4Cc5n[nH]cc5C[C@]34C)C1CC[C@]2(C)O (some centres undefined) | > 20 µM |
| NC1=NC(=O)N(C2CC(O)C(CO)O2)CN1 (centres undefined) | > 20 µM |
| Nc1nc(=O)n([C@@H]2CS[C@H](CO)O2)cc1F [EMTRICITABINE] | > 20 µM |
| CN(C)CCCSc1ccccc1NC(=O)/C=C/c1ccccc1 [CINANSERIN] | > 20 µM |
| O=C(NCCNCC(O)COc1ccc(O)cc1)N1CCOCC1 (centres undefined) [XAMOTEROL] | > 20 µM |
| Nc1nc(=O)n([C@@H]2O[C@H](CO)[C@@H](O)[C@H]2F)cc1I | > 20 µM |
| COc1ccc(CCN(C)CCCN2CCc3cc(OC)c(OC)cc3CC2=O)cc1OC [ZATEBRADINE] | > 20 µM |
| C/C(=C\C(=O)OCCCCCCCCC(=O)O)C[C@@H]1OC[C@H](C[C@@H]2O[C@H]2[C@H](C)[C@H](C)O)[C@@H](O)[C@@H]1O | > 20 µM |
| CCCN(CCC)C(=O)Cc1c(-c2ccc(Cl)cc2)nc2ccc(Cl)cn12 [ALPIDEM] | > 20 µM |
| CC1COc2c(N3CCN(C)CC3)c(F)cc3c(=O)c(C(=O)O)cn1c23 (centres undefined) [OFLOXACIN] | > 20 µM |
| CCc1nc(C(N)=O)c(Nc2ccc(N3CCC(N4CCN(C)CC4)CC3)c(OC)c2)nc1NC1CCOCC1 [GILTERITINIB] | > 20 µM |

same assay, conditions: Severe acute respiratory syndrome coronavirus 2, Vero C1008, 48 h, read-out: pIC50 (converted)

| Structure (SMILES) | IC50 |
| --- | --- |
| CC(C)Nc1ccc(Nc2ccccc2)cc1 | > 20 µM |
| CCC(=O)C(CCN1CCCCC1)(c1ccccc1)c1ccccc1 [NORPIPANONE] | > 20 µM |
| c1ccc(C(CCN2CCCCC2)c2ccccc2)cc1 | > 20 µM |
| CCN(Cc1ccccc1)C(=O)Cn1c(=O)n(C)c2cnc(-c3ccccc3)nc21 | > 20 µM |
| Cc1ccc(S(=O)(=O)NC(=O)NC2C3CCC(C)(C2O)C3(C)C)cc1 (centres undefined) | > 20 µM |
| Nc1ccc(F)cc1NC(=O)c1ccc(CNC(=O)/C=C/c2cccnc2)cc1 | > 20 µM |
| CC[C@@H](C(N)=O)N1CCCC1=O | > 20 µM |
| O=C(O)C1CC(O)CN1 (centres undefined) | > 20 µM |
| COP(=O)(OC)OC(c1ccc(Cl)cc1)P(=O)(OC)OC (centres undefined) [MIFOBATE] | > 20 µM |
| NC(=O)CCC/N=C(/c1ccc(Cl)cc1)c1cc(F)ccc1O | > 20 µM |
| C[C@H]1C[C@@H]2[C@H]([C@@H](O)C[C@@]3(C)[C@H]2CC[C@]3(O)C(=O)CO)[C@@]2(C)C=CC(=O)C=C12 [METHYLPREDNISOLONE] | > 20 µM |
| O=C(O)c1ccccc1OP(=O)(O)O [FOSFOSAL] | > 20 µM |
| CCOc1ccccc1OCCN[C@H](C)Cc1ccc(OC)c(S(N)(=O)=O)c1 [TAMSULOSIN] | > 20 µM |
| Cc1cc(CC(C)CC(C)(C)C)n(O)c(=O)c1 (centres undefined) [PIROCTONE] | > 20 µM |
| C[C@]12CC[C@@H]3c4ccc(O)cc4CC[C@H]3[C@@H]1CC[C@@H]2OC(=O)CCC1CCCC1 [ESTRADIOL CYPIONATE] | > 20 µM |
| NC(=O)c1csc(C2OC(CO)C(O)C2O)n1 (centres undefined) | > 20 µM |
| CCOC(=O)C(CCc1ccccc1)NC(C)C(=O)N(CC(=O)O)C1Cc2ccccc2C1 (centres undefined) | > 20 µM |
| CCOP(=O)(Cc1ccc(C(=O)Nc2ccc(Br)cc2C#N)cc1)OCC [IBROLIPIM] | > 20 µM |
| O=C(O)C1CCc2cc(C3CCCCC3)c(Cl)cc21 (centres undefined) | > 20 µM |
| O=C(O)c1ccccc1S [THIOSALICYLIC ACID] | > 20 µM |
| CN1CCC(=C2c3ccccc3CCc3sccc32)CC1 [PIZOTYLINE] | > 20 µM |
| CN1CCN(c2nc(C3=C(c4c[nH]c5ccccc45)C(=O)NC3=O)c3ccccc3n2)CC1 [SOTRASTAURIN] | > 20 µM |
| CC(=O)OC1CC(OC2C(O)CC(OC3C(O)CC(OC4CCC5(C)C(CCC6C5CC(O)C5(C)C(C7=CC(=O)OC7)CCC65O)C4)OC3C)OC2C)OC(C)C1OC1OC(CO)C(O)C(O)C1O (centres undefined) | > 20 µM |
| CN1C(=O)N(C)C2C1N(C)C(=O)N2C (centres undefined) [MEBICAR] | > 20 µM |

| Structure (SMILES) | IC50 |
| --- | --- |
| CCN(CC)CCOc1ccccc1C(=O)CCc1ccccc1 [ETAFENONE] | > 20 µM |
| O=C(O)c1cc(NC(=O)[C@H](Cc2ccccc2F)NC(=O)c2cc3[nH]cnc3cc2C(=O)NCC2CCCCCC2)cc(C(=O)O)c1 | > 20 µM |
| C[C@@H]1NC(=O)CO[C@@H]1c1ccccc1 | > 20 µM |
| C[C@]12CC[C@@H]3c4ccc(O)cc4CC[C@H]3[C@@H]1C[C@@H](O)[C@@H]2O [ESTRIOL] | > 20 µM |
| Cc1cn2nc([C@H]3CCCCN3C(=O)c3cc(Cl)ccc3NS(C)(=O)=O)cc2nc1N1CC[C@H](N)C1 | > 20 µM |
| Oc1ccccc1 [PHENOL] | > 20 µM |
| CCOC(=O)COc1ccc2c(C)c(CCN(CC)CC)c(=O)oc2c1 [CHROMONAR] | > 20 µM |
| NCCCC[C@H](NC(=O)[C@@H](Cc1cc(Br)c(O)c(Br)c1)NC(=O)N1CCC(N2Cc3ccccc3NC2=O)CC1)C(=O)N1CCN(c2ccncc2)CC1 [OLCEGEPANT] | > 20 µM |
| NNC(=O)c1ccncc1 [ISONIAZID] | > 20 µM |
| CCO[C@@H]1OC(=O)C[C@@H]1NC(=O)[C@@H]1CCCN1C(=O)[C@@H](NC(=O)c1ccc(N)c(Cl)c1)C(C)(C)C [BELNACASAN] | > 20 µM |
| O=C1CCCN1CC#CCN1CCCC1 [OXOTREMORINE] | > 20 µM |
| O=c1cc(CO)occ1O [KOJIC ACID] | > 20 µM |
| CC12CCC3C(CC[C@H]4Cc5n[nH]cc5C[C@]34C)C1CC[C@]2(C)O (some centres undefined) | > 20 µM |
| NC1=NC(=O)N(C2CC(O)C(CO)O2)CN1 (centres undefined) | > 20 µM |
| Nc1nc(=O)n([C@@H]2CS[C@H](CO)O2)cc1F [EMTRICITABINE] | > 20 µM |
| CN(C)CCCSc1ccccc1NC(=O)/C=C/c1ccccc1 [CINANSERIN] | > 20 µM |
| O=C(NCCNCC(O)COc1ccc(O)cc1)N1CCOCC1 (centres undefined) [XAMOTEROL] | > 20 µM |
| Nc1nc(=O)n([C@@H]2O[C@H](CO)[C@@H](O)[C@H]2F)cc1I | > 20 µM |
| COc1ccc(CCN(C)CCCN2CCc3cc(OC)c(OC)cc3CC2=O)cc1OC [ZATEBRADINE] | > 20 µM |
| C/C(=C\C(=O)OCCCCCCCCC(=O)O)C[C@@H]1OC[C@H](C[C@@H]2O[C@H]2[C@H](C)[C@H](C)O)[C@@H](O)[C@@H]1O | > 20 µM |
| CCCN(CCC)C(=O)Cc1c(-c2ccc(Cl)cc2)nc2ccc(Cl)cn12 [ALPIDEM] | > 20 µM |
| CC1COc2c(N3CCN(C)CC3)c(F)cc3c(=O)c(C(=O)O)cn1c23 (centres undefined) [OFLOXACIN] | > 20 µM |
| CCc1nc(C(N)=O)c(Nc2ccc(N3CCC(N4CCN(C)CC4)CC3)c(OC)c2)nc1NC1CCOCC1 [GILTERITINIB] | > 20 µM |
